The subject of one assay is utrophin-A expression. As to the kind of experiment: Utrophin upregulation in mdx^5cv myotubes (qRT-PCR for utrophin-A expression). The class given is cell-based. As to conditions: Mus musculus, Myotube, 72 h, 3 days, RT-PCR, read-out: Utrophin upregulation (average of fold change utrophin vs DMSO ± sem). The procedure:
Isolation of satellite cell-derived primary myoblasts was performed via cell-surface antibodies and magnetic separation as previously described, and cultured for their expansion (Motohashi et al., J Vis Exp. 2014 Apr. 8; (86): 50846). Briefly, after collagenase (Worthington, CLS-2) treatment, dissociated cells from mdx^5cv mouse hindlimb muscle were incubated with anti-CD31 monoclonal antibody conjugated to phycoerythrin (eBioscience, 12-0311), anti-CD45 monoclonal antibody conjugated to phycoerythrin (eBioscience, 30-F11), anti-Scal monoclonal antibody conjugated to phycoerythrin (eBioscience, Dec-81) and anti-Integrin a7 (MBL International, ABIN487462), followed by anti-PE microbeads (Miltenyi Biotec, 130-048-801), and then performed LD column (Miltenyi Biotec, 130-042-901) separation. Negative cell populations were incubated with anti-Mouse IgG beads (Miltenyi Biotec, 130-048-402), and then MS column (Miltenyi Biotec, 130-042-201) separation was performed to isolate Integrin a7 (+) satellite cells. Satellite cell-derived mdx^5cv myoblasts were maintained in culture on collagen coated plates in myoblast medium containing 20% FBS and 20 ng/ml bFGF (Invitrogen, PHG0263) in HAM's-F10 medium. Cell cultures were maintained in a humidified incubator at 37° C. with 5% CO2 and 5% 02. The mdx^5cv myoblasts were induced to differentiate into multinucleated myotubes after low serum conditions (DMEM supplemented with 5% horse serum).
Halofuginone was obtained from Selleck. Veliflapon and cloricromen HCl were obtained from Sigma. Fabomotizole HCl was obtained from MedChemExpress. Difenpiramide was obtained from Enamine. Amopyroquine and alpelisib were obtained from Carbosynth. Benorilate and xipamide were obtained from Fluorochem. Altizide was obtained from Toronto Research Chemicals. All chemical compounds were dissolved with 100% DMSO to adjust to 10 mM stock solutions.
Every day compounds were added to mdx^5cv myotubes at different concentrations (0.01 to 10 μM) by replacement of the differentiation medium. After 3 days compound exposure, cells were harvested for RNA preparation by TRIzol reagent (15596026, ThermoFisher Scientific). Isolated RNA was used for cDNA synthesis using the Transcriptor First Strand cDNA synthesis kit (04379012001, Roche Molecular Diagnostics) using random primers. Diluted DMSO solution was used as a negative control vehicle. qRT-PCR assay for utrophin-A expression was performed using the following primers: Utro-F1 (Forward) 5′-[…]-3′ (SEQ ID NO: 1) and Utro-R1 (Reverse) 5′-[…]-3′ (SEQ ID NO: 2). 18S rRNA was used as an internal control, with the following primers: 18S-F1 (Forward) 5′-[…]-3′ (SEQ ID NO: 3) and 18S-R1 (Reverse) 5′-[…]-3′ (SEQ ID NO: 4). qPCR was performed using GoTaq qPCR Master Mix (A6001, Promega). All primers were synthesized as custom DNA oligos from Integrated DNA technologies (IDT). Analysis was done using the ACt method. Statistical analysis was performed with at least three independent experiments with between 2 and 4 replicates in each experiment.
The chemical compounds were tested in mdx^5cv myotubes at different concentrations for 3 days. Halofuginone was used as a positive control for the utrophin up-regulation.
A general note: In qPCR the cycle at which signal appears reflects the starting amount.

The subject of assay [1] is DMD patient-derived 3D skeletal muscle tissues. Description: Force of muscle contraction in response to electrical pulse stimulation in human 3D skeletal muscle tissues. The class given is cell-based. As to conditions: 10 μM; for tetanic index (maximal tetanic specific force / maximal twitch specific force): 2 days (FIG. 3); for maximal twitch contractile force in response to electrical stimulation / tetanic contractile force in response to electrical stimulation: 2 days; for maximal twitch contractile force in response to electrical stimulation: 1 Hz EPS, compared with DMSO treated cells (FIG. 1); for tetanic contractile force in response to electrical stimulation: 50 Hz EPS, compared with DMSO treated cells (FIG. 2). The procedure: Fabrication of Human 3D Skeletal Muscle Tissues and Treatment Human 3D skeletal muscle tissues were fabricated using polydimethylsiloxane (PDMS; Sylgard 184 silicone elastomer kit, Dow Corning) casting molds developed and fabricated as described in Fernández-Costa et al. 2022. Briefly, the casting molds design consists of a square-shaped pool, where the cells/hydrogel solution is seeded, and two vertical, flexible PDMS pillars. PDMS casting molds were prepared for muscle cell culture by first cleaning them by sonication on water with soap, 2-propanol, and Mili-Q water and sterilized with UV light for 15 min. It was followed by 1 h treatment with 1% Plurionic® F-127 (Sigma-Aldrich) solution in cold PBS (100 μl/well) at 4° C. Human 3D skeletal muscle tissues were generated using Immortalized human muscle satellite cells (iHuMSCs) from a DMD patient (DMD 2, clone G82) (Massenet et al. 2020). iHuMSCs were cultured in growth medium (skeletal muscle basal medium (PromoCell GmbH), skeletal muscle supplemental mix (PromoCell GmbH), 10% Fetal Bovine Serum (FBS) (Gibco™), 100 U/mL penicillin and 100 μg/ml streptomycin (Gibco™)). iHuMSCs were released from culture flasks via mild trypsinization. Cells were encapsulated at 2.5×10^7 cells/ml in a cell/hydrogel mixture of 30% v/v Corning® Matrigel® Growth Factor Reduced (GFR) Basement Membrane Matrix (Corning®), 2 units of thrombin from human plasma (Sigma-Aldrich) and 4 mg/mL of fibrinogen from human plasma (50% v/v) (Sigma-Aldrich). 35 μl was pipetted within each PDMS casting mold using cool tips to avoid premature polymerization.
The cell/hydrogel mixture was polymerized for 30 min at 37° C. followed by incubation in growth medium containing 1 mg/mL of 6-aminocaproic acid (ACA) (Sigma-Aldrich). ACA works as an antifibrinolytic, which avoids fibrin depolymerization. They were kept in growth media for two days and then switched to differentiation medium (Dulbecco's Modified Eagle Medium, high glucose, GlutaMAX™ Supplement (Gibco™), containing 1% KnockOut™ Serum replacement (Gibco™), 1% Insulin-Transferrin-Selenium-Ethanolamine (Gibco™) and 1% Penicillin-Streptomycin-Glutamine (Gibco™)) containing 1 mg/mL of ACA for seven days. Half of the volume of differentiation medium was replaced every two days. After five days of differentiation, the medium was replaced by differentiation medium with the drugs at 10 μM and 0.01% DMSO final concentration. The treatment was kept for 48 hours.
Human 3D skeletal muscle tissues were electrically stimulated after seven days of differentiation to induce muscle contraction. A custom-made device consisted of a 12-well plate with two graphite electrodes per well located on the lid was used to perform the EPS. PDMS casting molds were placed on a 12-well plate with fresh differentiation medium. The plate was placed on a Zeiss Axio Observer Z1/7 outfitted with the XL S1 cell incubator at 37° C. and 5% CO2. The device was connected to a pulse generator (Multifunction Generator WF1974, NF Corporation), and tissues were stimulated with electrical square-wave pulses of 1 V/mm, 1 ms of pulse width, and frequencies varying from 1 to 50 Hz. The contractibility in response of EPS of 1 Hz of frequency was evaluated to study twitch contraction dynamics. On the other hand, 50 Hz of frequency was applied to induce tetanic contractions.
Videos of the movement of the pillar of the casting molds in response to the muscle contractions were taken with a ZEISS Axio Observer Z1/7 microscope. Cross-sectional area and location of the tissues on the axis of the pillars were also recorded during the assay. Videos were analyzed using a custom-made Python script and the specific force performed from the tissues was calculated applying […] together with the calculated displacement of the pillar as done in Mestre et al. 2018. Tetanic index was calculated as the ratio between the maximal tetanic specific force divided by the maximal twitch specific force. […]

Counter-ions that a name gives are not always drawn.

In the case of `Cc1nc(NC(=O)N2CCC[C@H]2C(N)=O)sc1-c1ccnc(C(C)(C)C(F)(F)F)c1` [Alpelisib], in the assay with utrophin-A expression, the fold induction at 0.1 µM turned out to be 1.08 ± 0.09, the fold induction at 1 µM was 1.45 ± 0.11 and the fold induction at 10 µM was determined as 1.4 ± 0.13.

For `C=CCSCC1Nc2cc(Cl)c(S(N)(=O)=O)cc2S(=O)(=O)N1` (stereo not drawn) [Altizide], in the assay with utrophin-A expression, the fold induction at 0.1 µM stood at 1.09 ± 0.07, the fold induction at 1 µM came to 1.33 ± 0.09 and the fold induction at 10 µM amounted to 1.33 ± 0.09.

For `Oc1ccc(Nc2ccnc3cc(Cl)ccc23)cc1CN1CCCC1` [Amopyroquine], in the assay with utrophin-A expression, the fold induction at 0.1 µM turned out to be 1.23 ± 0.11, the fold induction at 1 µM was determined as 1.1 ± 0.14 and the fold induction at 10 µM worked out at 1.23 ± 0.37.

For the molecule `CC(=O)Nc1ccc(OC(=O)c2ccccc2OC(C)=O)cc1` [Benorilate], in the assay on utrophin-A expression, the fold induction at 0.1 µM was 1.16 ± 0.12, the fold induction at 1 µM was 1.04 ± 0.16 and the fold induction at 10 µM was found to be 1.58 ± 0.29.

As for `CCOC(=O)COc1ccc2c(C)c(CCN(CC)CC)c(=O)oc2c1Cl` [Cloricromen hydrochloride, Cloricromen], in the assay with utrophin-A expression, the fold induction at 0.1 µM came out at 1.06 ± 0.19, the fold induction at 1 µM turned out to be 1.07 ± 0.22 and the fold induction at 10 µM was 1.34 ± 0.13.

`O=C(Cc1ccc(-c2ccccc2)cc1)Nc1ccccn1` [Difenpiramide]: in the assay on utrophin-A expression, the fold induction at 0.1 µM amounted to 1.24 ± 0.13, the fold induction at 1 µM worked out at 1.1 ± 0.21 and the fold induction at 10 µM is 1.23 ± 0.21. In assay [1], the “tetanic index (maximal tetanic specific force / maximal twitch specific force)” value was “significant increase”, the “maximal twitch contractile force in response to electrical stimulation” value is “increase” and the “tetanic contractile force in response to electrical stimulation” value is recorded as “increase”.

For the molecule `CCOc1ccc2[nH]c(SCCN3CCOCC3)nc2c1` [Fabomotizole hydrochloride, Fabomotizole], in the assay on utrophin-A expression, the fold induction at 0.1 µM was 1.34 ± 0.07, the fold induction at 1 µM came to 1.04 ± 0.1 and the fold induction at 10 µM is 1.34 ± 0.19.

For `O=C(CC1NCCCC1O)Cn1cnc2cc(Br)c(Cl)cc2c1=O` (stereo not drawn) [Halofuginone], in the assay with utrophin-A expression, the fold induction at 0.1 µM is 1.44 ± 0.37, the fold induction at 1 µM turned out to be 1.24 ± 0.1 and the fold induction at 10 µM was found to be 1.3 ± 0.04.

In the case of `O=C(O)[C@@H](c1ccc(OCc2ccc3ccccc3n2)cc1)C1CCCC1` [Veliflapon], in the assay on utrophin-A expression, the fold induction at 0.1 µM was determined as 1.43 ± 0.24, the fold induction at 1 µM was found to be 1.35 ± 0.02 and the fold induction at 10 µM was 1.05 ± 0.15. Moreover, in assay [1], the “tetanic index (maximal tetanic specific force / maximal twitch specific force)” value was “significant increase”, the “maximal twitch contractile force in response to electrical stimulation” value is reported as “increase” and the “tetanic contractile force in response to electrical stimulation” value is reported as “increase”.

On to `Cc1cccc(C)c1NC(=O)c1cc(S(N)(=O)=O)c(Cl)cc1O` [Xipamide], for which, in the assay on utrophin-A expression, the fold induction at 0.1 µM came out at 1.25 ± 0.18, the fold induction at 1 µM stood at 1.05 ± 0.17 and the fold induction at 10 µM was 1.18 ± 0.1.
